Measured values published in article PMC11581214, “Compound 4f, a novel brain-penetrant reversible monoacylglycerol inhibitor, ameliorates neuroinflammation, neuronal cell loss, and cognitive impairment in mice with kainic acid-induced neurodegeneration” (PLOS ONE, 2024).

Key:
[1] = biological target: T1, monoacylglycerol lipase (MAGL) (Mus musculus, UniProt O35678); experiment: in vivo brain target occupancy by displacement of MAGL tracer T-211 (LC-MS/MS); brain 2-AG increase and AA decrease; assay type: cell-based
T1 construct: gene Mgll
T1 sequence (O35678 1-303): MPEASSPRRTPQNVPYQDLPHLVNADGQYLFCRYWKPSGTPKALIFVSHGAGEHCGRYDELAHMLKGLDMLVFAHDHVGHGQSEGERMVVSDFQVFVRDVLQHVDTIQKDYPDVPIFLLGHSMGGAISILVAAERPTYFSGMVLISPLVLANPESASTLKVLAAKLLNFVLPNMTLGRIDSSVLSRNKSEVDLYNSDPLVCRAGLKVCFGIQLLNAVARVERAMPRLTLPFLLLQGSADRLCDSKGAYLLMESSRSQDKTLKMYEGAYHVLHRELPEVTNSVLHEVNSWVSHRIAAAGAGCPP

[2] = biological target: T2, monoamine oxidase-B (Homo sapiens, UniProt P27338); experiment: off-target panel enzyme assay (Eurofins), single concentration […]; assay type: biochemical
T2 construct: gene MAOB
T2 sequence (P27338 2-520): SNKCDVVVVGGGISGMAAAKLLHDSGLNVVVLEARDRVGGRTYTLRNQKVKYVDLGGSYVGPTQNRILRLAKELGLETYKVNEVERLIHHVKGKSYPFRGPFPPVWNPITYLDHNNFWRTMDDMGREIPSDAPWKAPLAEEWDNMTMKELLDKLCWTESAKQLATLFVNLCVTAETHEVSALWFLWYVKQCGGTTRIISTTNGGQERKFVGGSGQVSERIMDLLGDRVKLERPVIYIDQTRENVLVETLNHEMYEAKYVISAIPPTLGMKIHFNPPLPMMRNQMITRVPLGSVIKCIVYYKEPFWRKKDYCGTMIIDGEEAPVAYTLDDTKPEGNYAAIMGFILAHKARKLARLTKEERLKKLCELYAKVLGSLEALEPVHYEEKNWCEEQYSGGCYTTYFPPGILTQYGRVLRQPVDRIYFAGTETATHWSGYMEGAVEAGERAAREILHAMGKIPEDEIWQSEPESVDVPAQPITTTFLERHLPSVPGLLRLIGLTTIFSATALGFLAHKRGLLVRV

[3] = biological target: T3, serotonin (5-hydroxytryptamine) 2B (Homo sapiens, UniProt P41595); experiment: off-target panel of radioligand binding and functional assays (Eurofins), single concentration […]
T3 construct: gene HTR2B
T3 sequence (P41595 whole entry): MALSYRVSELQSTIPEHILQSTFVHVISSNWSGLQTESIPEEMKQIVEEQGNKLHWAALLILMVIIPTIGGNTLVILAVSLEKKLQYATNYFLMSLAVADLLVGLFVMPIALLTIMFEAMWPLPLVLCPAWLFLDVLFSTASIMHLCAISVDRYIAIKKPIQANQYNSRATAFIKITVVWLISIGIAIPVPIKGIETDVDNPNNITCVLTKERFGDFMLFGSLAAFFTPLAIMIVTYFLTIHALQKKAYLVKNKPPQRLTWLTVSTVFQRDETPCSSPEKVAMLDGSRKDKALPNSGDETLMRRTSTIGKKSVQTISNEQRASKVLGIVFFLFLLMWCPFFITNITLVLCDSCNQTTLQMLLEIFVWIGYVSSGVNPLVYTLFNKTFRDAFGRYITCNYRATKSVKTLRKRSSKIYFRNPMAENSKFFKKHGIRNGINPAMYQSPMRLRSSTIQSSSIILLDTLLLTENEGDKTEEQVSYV

Cc1ccc(COC2CN(C(=O)[C@H]3C[C@]4(COC(=O)N4)C3)C2)cc1Cl [4f]
receptor occupancy at 1 mg/kg [1]: > 99%
inhibition at 10 µM [2]: < 50%
inhibition at 10 µM [3]: 81%
